Data as given in patent US8445408B2, “Pyrimidine derivatives and their use for controlling undesired plant growth” (Bayer Cropscience AG, priority 2008, dated 2013).

Assays:
[1] = logp (HCOOH), chemicophysical data; conditions: HCOOH (formic acid)
[2] = tested on: Alopecurus myosuroides; assay: Pre-emergence herbicidal effect; assay type: in vivo; conditions: Dosage 320 (0.32 kg active substance per hectare); visual scoring after 3 weeks vs untreated controls; 100% = plants have died
Description: (§1) Seeds of monocotyledonous or dicotyledonous weed plants or crop plants are planted in wood-fiber pots in sandy loam and covered with earth. The compounds according to the invention, formulated in the form of wettable powders (WP) or as emulsion concentrates (EC), are then applied as aqueous suspension or emulsion at a water application rate of 600 to 800 I/ha (converted) with the addition of 0.2% of wetting agent to the surface of the covering earth. Following the treatment, the pots are placed in a greenhouse and kept under good growth conditions for the test plants. The visual scoring of the damage on the test plants is carried out after an experiment time of 3 weeks in comparison with untreated controls (herbicidal effect in percent (%): 100% effect=plants have died, 0% effect=as control plants). [table]

[3] = tested on: Amaranthus retroflexus; assay: Pre-emergence herbicidal effect; assay type: in vivo; conditions: Dosage 320 (0.32 kg active substance per hectare); visual scoring after 3 weeks vs untreated controls; 100% = plants have died
Description: as §1

[4] = tested on: Echinochloa crus-galli; assay: Pre-emergence herbicidal effect; assay type: in vivo; conditions: Dosage 320 (0.32 kg active substance per hectare); visual scoring after 3 weeks vs untreated controls; 100% = plants have died
Description: as §1

[5] = tested on: Matricaria inodora; assay: Pre-emergence herbicidal effect; assay type: in vivo; conditions: Dosage 320 (0.32 kg active substance per hectare); visual scoring after 3 weeks vs untreated controls; 100% = plants have died
Description: as §1

[6] = tested on: Polygonum convolvulus; assay: Pre-emergence herbicidal effect; assay type: in vivo; conditions: Dosage 320 (0.32 kg active substance per hectare); visual scoring after 3 weeks vs untreated controls; 100% = plants have died
Description: as §1

[7] = tested on: Setaria viridis; assay: Pre-emergence herbicidal effect; assay type: in vivo; conditions: Dosage 320 (0.32 kg active substance per hectare); visual scoring after 3 weeks vs untreated controls; 100% = plants have died
Description: as §1

[8] = tested on: Stellaria media; assay: Pre-emergence herbicidal effect; assay type: in vivo; conditions: Dosage 320 (0.32 kg active substance per hectare); visual scoring after 3 weeks vs untreated controls; 100% = plants have died
Description: as §1

[9] = tested on: Veronica persica; assay: Pre-emergence herbicidal effect; assay type: in vivo; conditions: Dosage 320 (0.32 kg active substance per hectare); visual scoring after 3 weeks vs untreated controls; 100% = plants have died
Description: as §1

[10] = tested on: Viola tricolor; assay: Pre-emergence herbicidal effect; assay type: in vivo; conditions: Dosage 320 (0.32 kg active substance per hectare); visual scoring after 3 weeks vs untreated controls; 100% = plants have died
Description: as §1

[11] = tested on: Amaranthus retroflexus; assay: Post-emergence herbicidal effect; assay type: in vivo; conditions: Dosage 320 (0.32 kg active substance per hectare); treated in one-leaf stage; visual scoring after ca. 3 weeks vs untreated controls; 100% = plants have died
Protocol: (§2) [table] 2. Post-emergence herbicidal effect and crop plant compatibility Seeds of monocotyledonous or dicotyledonous weed plants or crop plants are planted in wood-fiber pots in sandy loam, covered with earth and grown in a greenhouse under good growth conditions. 2 to 3 weeks after sowing, the test plants are treated in the one-leaf stage. The compounds according to the invention, formulated in the form of wettable powders (WP) or as emulsion concentrates (EC), are then sprayed onto the green plant parts as aqueous suspension or emulsion at a water application rate of 600 to 800 I/ha (converted) with the addition of 0.2% of wetting agent. After ca. 3 weeks' standing time of the test plants in the greenhouse under optimum growth conditions, the effect of the preparations is scored visually in comparison with untreated controls (herbicidal effect in percent (%): 100% effect=plants have died, 0% effect=as control plants).

[12] = tested on: Echinochloa crus-galli; assay: Post-emergence herbicidal effect; assay type: in vivo; conditions: Dosage 320 (0.32 kg active substance per hectare); treated in one-leaf stage; visual scoring after ca. 3 weeks vs untreated controls; 100% = plants have died
Protocol: as §2

[13] = tested on: Pharbitis purpurea; assay: Post-emergence herbicidal effect; assay type: in vivo; conditions: Dosage 320 (0.32 kg active substance per hectare); treated in one-leaf stage; visual scoring after ca. 3 weeks vs untreated controls; 100% = plants have died
Protocol: as §2

[14] = tested on: Polygonum convolvulus; assay: Post-emergence herbicidal effect; assay type: in vivo; conditions: Dosage 320 (0.32 kg active substance per hectare); treated in one-leaf stage; visual scoring after ca. 3 weeks vs untreated controls; 100% = plants have died
Protocol: as §2

[15] = tested on: Setaria viridis; assay: Post-emergence herbicidal effect; assay type: in vivo; conditions: Dosage 320 (0.32 kg active substance per hectare); treated in one-leaf stage; visual scoring after ca. 3 weeks vs untreated controls; 100% = plants have died
Protocol: as §2

[16] = tested on: Veronica persica; assay: Post-emergence herbicidal effect; assay type: in vivo; conditions: Dosage 320 (0.32 kg active substance per hectare); treated in one-leaf stage; visual scoring after ca. 3 weeks vs untreated controls; 100% = plants have died
Protocol: as §2

[17] = tested on: Viola tricolor; assay: Post-emergence herbicidal effect; assay type: in vivo; conditions: Dosage 320 (0.32 kg active substance per hectare); treated in one-leaf stage; visual scoring after ca. 3 weeks vs untreated controls; 100% = plants have died
Protocol: as §2

[18] = tested on: Lolium multiflorum; assay: Pre-emergence herbicidal effect; assay type: in vivo; conditions: Dosage 320 (0.32 kg active substance per hectare); visual scoring after 3 weeks vs untreated controls; 100% = plants have died
Description: as §1

[19] = tested on: Abutilon theophrasti; assay: Post-emergence herbicidal effect; assay type: in vivo; conditions: Dosage 320 (0.32 kg active substance per hectare); treated in one-leaf stage; visual scoring after ca. 3 weeks vs untreated controls; 100% = plants have died
Protocol: as §2

[20] = tested on: Cyperus esculentus; assay: Pre-emergence herbicidal effect; assay type: in vivo; conditions: Dosage 320 (0.32 kg active substance per hectare); visual scoring after 3 weeks vs untreated controls; 100% = plants have died
Description: as §1

[21] = tested on: Chenopodium album; assay: Post-emergence herbicidal effect; assay type: in vivo; conditions: Dosage 320 (0.32 kg active substance per hectare); treated in one-leaf stage; visual scoring after ca. 3 weeks vs untreated controls; 100% = plants have died
Protocol: as §2

[22] = tested on: Matricaria inodora; assay: Post-emergence herbicidal effect; assay type: in vivo; conditions: Dosage 320 (0.32 kg active substance per hectare); treated in one-leaf stage; visual scoring after ca. 3 weeks vs untreated controls; 100% = plants have died
Protocol: as §2

[23] = tested on: Lolium multiflorum; assay: Post-emergence herbicidal effect; assay type: in vivo; conditions: Dosage 320 (0.32 kg active substance per hectare); treated in one-leaf stage; visual scoring after ca. 3 weeks vs untreated controls; 100% = plants have died
Protocol: as §2

[24] = tested on: Stellaria media; assay: Post-emergence herbicidal effect; assay type: in vivo; conditions: Dosage 320 (0.32 kg active substance per hectare); treated in one-leaf stage; visual scoring after ca. 3 weeks vs untreated controls; 100% = plants have died
Protocol: as §2

Structure (SMILES)	Pre-emergence herbicidal effect ALOMY [2]	Pre-emergence herbicidal effect AMARE [3]	Pre-emergence herbicidal effect ECHCG [4]	Pre-emergence herbicidal effect POLCO [6]	Pre-emergence herbicidal effect SETVI [7]	Pre-emergence herbicidal effect VERPE [9]	Pre-emergence herbicidal effect VIOTR [10]	Post-emergence herbicidal effect AMARE [11]	Post-emergence herbicidal effect ECHCG [12]	Post-emergence herbicidal effect PHBPU [13]	Post-emergence herbicidal effect VERPE [16]	Post-emergence herbicidal effect VIOTR [17]	Pre-emergence herbicidal effect LOLMU [18]	Post-emergence herbicidal effect ABUTH [19]	further results
N#Cc1c(N[C@@H]2CCCc3ccccc32)nc(N)nc1-c1ccccc1 [Example 1.53, 2-Amino-4-phenyl-6-[(1R)-1,2,3,4-tetrahydronaphthalen-1-ylamino]pyrimidine-5-carbonitrile]	–	–	–	–	–	–	–	–	–	–	–	–	–	–	chromatographic logP [1]: 2.87
Cc1ccc2c(c1)[C@H](Nc1cc(Cl)nc(N)n1)[C@@H](C)C2 [Example 1.42]	100%	100%	100%	100%	100%	100%	100%	100%	90%	100%	80%	90%	–	–	Pre-emergence herbicidal effect MATIN [5]: 100%; Pre-emergence herbicidal effect STEME [8]: 100%; Post-emergence herbicidal effect POLCO [14]: 80%; Post-emergence herbicidal effect SETVI [15]: 80%
Cc1ccc2c(c1)[C@H](Nc1cc(C(F)(F)F)nc(N)n1)[C@@H](C)C2 [Example 1.27, N4-[(1R,2S)-2,6-dimethyl-2,3-dihydro-1H-inden-1-yl]-6-(trifluoromethyl)pyrimidine-2,4-diamine]	–	100%	100%	100%	100%	100%	100%	100%	85%	85%	85%	85%	80%	90%	Pre-emergence herbicidal effect MATIN [5]: 100%; Pre-emergence herbicidal effect STEME [8]: 100%; Post-emergence herbicidal effect POLCO [14]: 80%; Post-emergence herbicidal effect SETVI [15]: 80%; chromatographic logP [1]: 2.77
Nc1ncc(C(F)(F)F)c(N[C@@H]2CCCc3ccccc32)n1 [Example 1.60, N4-[(1R)-1,2,3,4-tetrahydronaphthalen-1-yl]-5-(trifluoromethyl)pyrimidine-2,4-diamine]	–	–	–	–	–	–	–	–	–	–	–	–	–	–	melting point: 120 to 121 °C
Cc1ccc2c(c1)C(Nc1cc(C(F)(F)F)nc(N)n1)C(C)C2 (racemic) [Example 1.31]	100%	–	–	100%	100%	–	–	100%	–	–	90%	–	80%	90%	Pre-emergence herbicidal effect CYPES [20]: 100%; Post-emergence herbicidal effect CHEAL [21]: 80%; Post-emergence herbicidal effect MATIN [22]: 90%
Nc1nc(Cl)cc(N[C@@H]2CCc3ccccc32)n1 [Example 1.44]	–	100%	–	100%	–	100%	100%	–	–	–	–	–	–	–	–
Cc1ccc2c(c1)[C@H](Nc1cc(C(F)F)nc(N)n1)[C@@H](C)C2 [Example 1.30]	100%	100%	100%	100%	100%	100%	100%	95%	87%	90%	90%	85%	100%	85%	Pre-emergence herbicidal effect MATIN [5]: 100%; Pre-emergence herbicidal effect STEME [8]: 100%; Post-emergence herbicidal effect LOLMU [23]: 80%; Post-emergence herbicidal effect SETVI [15]: 80%; Post-emergence herbicidal effect STEME [24]: 80%
Cc1cc(C)c2c(c1)C(Nc1cc(C(F)(F)F)nc(N)n1)CCC2 (racemic) [Example 1.17]	–	100%	–	–	–	100%	–	–	–	–	–	–	–	–	–
Nc1nc(N[C@@H]2CCCc3ccccc32)cc(C(F)F)n1 [Example 1.35]	80%	100%	80%	100%	90%	100%	100%	90%	–	80%	–	80%	100%	–	–
Nc1nc(N[C@@H]2CCc3ccccc32)cc(C(F)F)n1 [Example 1.36]	–	–	–	–	–	–	–	100%	90%	80%	90%	90%	–	80%	Post-emergence herbicidal effect LOLMU [23]: 90%
Nc1nc(NC2CCc3ccccc32)cc(C(F)(F)F)n1 (racemic) [Example 1.18]	–	100%	–	100%	–	100%	–	–	–	–	–	–	–	–	–
